Consider 25 compounds from ChEMBL document CHEMBL1139948, “Design and synthesis of novel hydantoin-containing melanin-concentrating hormone receptor antagonists” (Bioorg Med Chem Lett, 2007).

Series [1] has as its target Melanin-concentrating hormone receptor 1 (Homo sapiens, UniProt Q99705). The series can be described thus: Displacement of [125I][Phe13, Tyr19]MCH from human recombinant MCHR1 expressed in CHO cells. It counts as cell-based. A general note: In a radioligand displacement assay an active substance lowers the binding of a labelled ligand.
Series [2] deals with Mus musculus. The series can be described thus: Reduction of cumulative food intake in over-night fasted mouse at 30 mg/kg, ip after 3 hrs relative to control. The format is functional. Details: scale not given: the % may be the effect or the level left. Conditions: route intraperitoneal.
A short description of series [3]: Binding affinity to L-verapamil site of calcium channel. Details: species or system Homo sapiens.
Series [4] is described as follows: Permeability across human Caco-2 cell membrane. It counts as ADME, cell-based. The following applies: read-out: permeability. On the technique in general: Caco-2 cells form a polarised layer with tight junctions and transporters.
The next series concerns the target hERG (KCNH2) (Homo sapiens, UniProt Q12809). The series can be described thus: Inhibition of hERG-mediated current amplitude at 1 uM. The format is toxicity. (The hERG channel carries a current that helps repolarise heart muscle cells.)
Series [5] concerns the target 5-hydroxytryptamine receptor 2A (Homo sapiens, UniProt P28223). The series can be described thus: Binding affinity to 5HT2A receptor.
The target of series [6] is Melanin-concentrating hormone receptor 2 (Homo sapiens, UniProt Q969V1). The series can be described thus: Binding affinity to MCHR2.
Series [7] concerns the target T1, 5-hydroxytryptamine receptor 2C (Homo sapiens, UniProt P28335).
T1 sequence (P28335 whole entry): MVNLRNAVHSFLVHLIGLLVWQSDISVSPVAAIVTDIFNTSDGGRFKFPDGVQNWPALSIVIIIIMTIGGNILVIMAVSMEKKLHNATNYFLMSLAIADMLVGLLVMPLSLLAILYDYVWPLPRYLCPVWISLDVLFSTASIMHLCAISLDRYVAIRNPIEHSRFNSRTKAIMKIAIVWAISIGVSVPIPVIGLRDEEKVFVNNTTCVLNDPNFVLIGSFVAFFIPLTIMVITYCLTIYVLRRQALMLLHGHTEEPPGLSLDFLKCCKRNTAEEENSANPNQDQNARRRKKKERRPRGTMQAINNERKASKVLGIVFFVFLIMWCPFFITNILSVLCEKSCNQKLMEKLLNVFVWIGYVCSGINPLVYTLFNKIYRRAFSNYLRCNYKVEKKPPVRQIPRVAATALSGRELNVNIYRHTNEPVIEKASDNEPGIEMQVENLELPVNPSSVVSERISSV
The series can be described thus: Binding affinity to 5HT2C receptor.

In series [8] the test system is Mus musculus. In words: Toxicity in mouse at 10 to 100 mg/kg, ip by Irwins method. Also on record: dose 10-100 mg/kg, route intraperitoneal. The format is organism-based. The following applies: in vivo.
The subject of series [9] is Mus musculus. In words: Antidepressant effect in mouse at 30 mg/kg, ip assessed as reduction in immobility duration after 30 mins by forced swimming test relative to control. The format is functional. Also on record: scale not given: the % may be the effect or the level left. The following applies: route intraperitoneal.
In series [10] the test system is Mus musculus. The series can be described thus: Reduction of cumulative food intake in over-night fasted mouse at 10 mg/kg, ip after 3 hrs relative to control. It counts as functional, organism-based. Also on record: dose 10 mg/kg.
In series [11] the test system is Mus musculus. In words: Antidepressant effect in mouse at 10 mg/kg, ip assessed as reduction in immobility duration after 30 mins by forced swimming test relative to control. Also on record: scale not given: the % may be the effect or the level left. It counts as functional. The following applies: route intraperitoneal.
The target of series [12] is Muscarinic acetylcholine receptor M4 (Homo sapiens) (UniProt P08173). In words: Binding affinity to muscarinic M4 receptor.

Calls of active or inactive are those of the source. The rule behind the calls is not given here.

Melanin-concentrating hormone receptor 1, sequence (Q99705 whole entry): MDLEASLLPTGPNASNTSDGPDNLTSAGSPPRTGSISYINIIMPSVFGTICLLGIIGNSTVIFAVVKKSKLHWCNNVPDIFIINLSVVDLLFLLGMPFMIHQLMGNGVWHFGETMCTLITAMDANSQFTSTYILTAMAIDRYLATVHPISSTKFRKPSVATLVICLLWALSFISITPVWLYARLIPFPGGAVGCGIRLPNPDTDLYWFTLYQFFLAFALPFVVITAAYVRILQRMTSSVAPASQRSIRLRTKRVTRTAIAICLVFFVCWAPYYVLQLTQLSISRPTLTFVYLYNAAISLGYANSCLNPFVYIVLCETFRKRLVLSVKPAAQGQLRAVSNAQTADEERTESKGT
5-hydroxytryptamine receptor 2A, sequence (P28223 whole entry): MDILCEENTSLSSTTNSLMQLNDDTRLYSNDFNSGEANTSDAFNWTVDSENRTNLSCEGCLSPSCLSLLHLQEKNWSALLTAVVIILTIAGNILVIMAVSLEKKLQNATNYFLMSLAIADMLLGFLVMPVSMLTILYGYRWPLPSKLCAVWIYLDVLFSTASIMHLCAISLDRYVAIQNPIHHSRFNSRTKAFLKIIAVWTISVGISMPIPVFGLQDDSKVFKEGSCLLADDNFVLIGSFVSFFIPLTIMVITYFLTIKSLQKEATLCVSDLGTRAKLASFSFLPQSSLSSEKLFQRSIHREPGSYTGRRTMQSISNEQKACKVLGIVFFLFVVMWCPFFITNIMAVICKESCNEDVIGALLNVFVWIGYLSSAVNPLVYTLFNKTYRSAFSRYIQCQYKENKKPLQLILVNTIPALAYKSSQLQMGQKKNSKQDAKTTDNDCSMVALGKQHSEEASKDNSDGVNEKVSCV
Melanin-concentrating hormone receptor 2, sequence (Q969V1 whole entry): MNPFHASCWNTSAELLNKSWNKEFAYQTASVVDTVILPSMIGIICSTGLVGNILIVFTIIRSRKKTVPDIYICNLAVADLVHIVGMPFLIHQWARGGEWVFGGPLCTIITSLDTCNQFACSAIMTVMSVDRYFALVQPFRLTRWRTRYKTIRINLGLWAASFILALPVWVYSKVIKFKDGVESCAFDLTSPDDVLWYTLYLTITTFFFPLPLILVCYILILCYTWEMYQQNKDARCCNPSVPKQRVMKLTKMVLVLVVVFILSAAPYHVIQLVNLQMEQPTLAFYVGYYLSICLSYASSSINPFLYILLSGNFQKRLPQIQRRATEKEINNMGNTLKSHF
hERG (KCNH2), sequence (Q12809 whole entry): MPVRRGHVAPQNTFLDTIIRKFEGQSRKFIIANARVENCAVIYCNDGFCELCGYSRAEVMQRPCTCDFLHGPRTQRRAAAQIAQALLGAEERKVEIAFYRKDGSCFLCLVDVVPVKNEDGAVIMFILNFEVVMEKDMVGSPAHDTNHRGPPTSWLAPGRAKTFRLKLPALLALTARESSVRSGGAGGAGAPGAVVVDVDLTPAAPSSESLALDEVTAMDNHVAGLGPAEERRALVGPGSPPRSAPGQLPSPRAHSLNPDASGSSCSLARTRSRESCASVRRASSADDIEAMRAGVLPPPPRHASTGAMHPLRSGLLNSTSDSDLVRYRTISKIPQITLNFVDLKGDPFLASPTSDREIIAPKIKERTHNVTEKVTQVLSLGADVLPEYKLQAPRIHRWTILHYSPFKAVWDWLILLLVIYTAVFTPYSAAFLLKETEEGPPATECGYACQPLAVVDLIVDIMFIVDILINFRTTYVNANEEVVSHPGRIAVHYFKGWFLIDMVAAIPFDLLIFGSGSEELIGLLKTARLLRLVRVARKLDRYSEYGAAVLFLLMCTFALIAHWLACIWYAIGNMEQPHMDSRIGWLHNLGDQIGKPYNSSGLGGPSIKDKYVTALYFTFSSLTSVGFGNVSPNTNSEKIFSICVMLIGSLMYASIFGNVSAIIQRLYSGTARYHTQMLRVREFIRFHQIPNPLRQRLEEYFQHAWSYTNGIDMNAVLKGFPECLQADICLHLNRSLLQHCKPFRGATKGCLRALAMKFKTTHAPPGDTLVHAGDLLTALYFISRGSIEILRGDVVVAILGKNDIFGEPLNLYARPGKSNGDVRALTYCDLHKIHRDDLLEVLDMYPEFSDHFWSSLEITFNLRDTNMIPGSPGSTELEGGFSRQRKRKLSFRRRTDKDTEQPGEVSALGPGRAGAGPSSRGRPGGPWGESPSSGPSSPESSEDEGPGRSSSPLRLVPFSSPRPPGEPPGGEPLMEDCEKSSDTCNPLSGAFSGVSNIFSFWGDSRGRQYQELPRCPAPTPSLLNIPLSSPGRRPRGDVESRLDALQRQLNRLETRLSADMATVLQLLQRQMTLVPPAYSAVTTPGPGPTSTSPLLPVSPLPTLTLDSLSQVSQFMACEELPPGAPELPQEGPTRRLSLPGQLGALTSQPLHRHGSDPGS

For `COc1cc(N2C(=O)CN(c3ccc(-c4ccccc4)cc3)C2=O)ccc1OCCN1CCCC1`, the Ki in series [1] is > 5 µM.
Turning to `COc1cc(Nc2nc(-c3ccc(Oc4ccccc4)cc3)cs2)ccc1OCCN1CCCC1`, the inhibition constant (Ki) in series [1] is 1 µM.
On the same count and under the same terms, to `O=C1N/C(=C\c2ccc(CN3CCN(Cc4ccccc4)CC3)cc2)C(=O)N1c1ccc(Oc2ccccc2)cc1` belongs > 5 µM; to `O=C1N/C(=C\c2ccc(CN3CCCCCC3)cc2)C(=O)N1c1ccc(Oc2ccccc2)cc1`, 0.357 µM.
Take `COc1cc(NC(=S)Nc2ccc(Oc3ccccc3)cc2)ccc1OCCN1CCCC1`: in series [1], the Ki was found to be 1.09 µM.
As to `O=C1N/C(=C\c2ccc(CN3CCC(O)C3)cc2)C(=O)N1c1ccc(Oc2ccccc2)cc1` (racemic), the Activity with Mus musculus [2] is recorded as 47%. For the same compound, the Ki in series [1] came to 0.176 µM.
For `O=C1N/C(=C\c2ccc(CN3CCOCC3)cc2)C(=O)N1c1ccc(Oc2ccccc2)cc1`, in [1], the Ki was > 5 µM.
`COc1cc(NC(=O)c2ccc(Oc3ccccc3)cc2)ccc1OCCN1CCCC1`: in series [1], the Ki amounted to 0.082 µM.
With `CN(C)CCNCc1ccc(/C=C2\NC(=O)N(c3ccc(Oc4ccccc4)cc3)C2=O)cc1`, in series [1], the Ki turned out to be 0.707 µM.
As to `CN(C)Cc1ccc(/C=C2\NC(=O)N(c3ccc(Oc4ccccc4)cc3)C2=O)cc1`, the Ki in [1] stood at 0.341 µM.
Still for that read-out and setting: the figure for `COc1cc(NC(=O)Nc2ccc(Oc3ccccc3)cc2)ccc1OCCN1CCCC1` is 0.101 µM.
Regarding `CC(=O)N1CCN(Cc2ccc(/C=C3\NC(=O)N(c4ccc(Oc5ccccc5)cc4)C3=O)cc2)CC1`, the Ki in [1] came out at 2.06 µM.
`O=C1N/C(=C\c2ccc(CN3CCCC3)cc2)C(=O)N1c1ccc(Oc2ccccc2)cc1`: the inhibition constant Ki in series [3] is 0.33 µM; in [5], > 5 µM; in [6], > 10 µM; in series [7], > 10 µM; in series [1], 0.22 µM. For the same compound, in series [4], the Papp was > 60 nm/s. The compound further showed an inhibition at 1 µM against hERG (KCNH2) of 73%. Further, the Activity was 41% with Mus musculus [2], “Non-toxic” in the series on Mus musculus [8] and -57% in the series on Mus musculus [9].
Turning to `COc1cc(NC(=O)Nc2ccc(-c3ccccc3)cc2)ccc1OCCN1CCCC1`, the inhibition constant (Ki) in [1] is 0.26 µM.
As for `O=C1N/C(=C\c2ccc(CN3CCCCC3)cc2)C(=O)N1c1ccc(Oc2ccccc2)cc1`, the Ki in [1] was > 5 µM.
On the same count and under the same terms, the figure for `CN(C)CC1CCc2cc(NC(=O)c3ccc(-c4ccc(F)cc4)cc3)ccc2C1` (centres undefined) is 0.038 µM; for `O=C1N/C(=C\c2ccc(CNCc3ccccc3)cc2)C(=O)N1c1ccc(Oc2ccccc2)cc1` it is > 5 µM.
Consider `CC(C)CC(N(C)C)C1(c2ccc(Cl)cc2)CCC1` (centres undefined), for which the result in the series on Mus musculus [10] was Active.
As for `O=C1N/C(=C\c2ccc(CNC3CCCC3)cc2)C(=O)N1c1ccc(Oc2ccccc2)cc1`, in series [1], the Ki is > 5 µM.
Same read-out and setting: the figure for `O=C1N/C(=C\c2ccc(CN3CCN(c4ccccc4)CC3)cc2)C(=O)N1c1ccc(Oc2ccccc2)cc1` is > 5 µM.
On to `CN(C)CCCN1c2ccccc2CCc2ccccc21` [IMIPRAMINE], for which the Activity in the series with Mus musculus [11] is -58%.
In the case of `COc1cc(N2CC(=O)N(c3ccc(Oc4ccccc4)cc3)C2=O)ccc1OCCN1CCCC1`, the Ki in series [12] came out at 0.37 µM; in series [5], 0.33 µM; in series [7], 0.88 µM; in [1], 0.164 µM. For the same compound, the Activity in the series on Mus musculus [2] is on record as 51%.
For the compound `COc1cc(NC(=O)c2ccc(-c3ccccc3)cc2)ccc1OCCN1CCCC1`, in [1], the Ki came out at 0.025 µM.
Turning to `COc1cc(N2C(=O)CN(c3ccc(Oc4ccccc4)cc3)C2=O)ccc1OCCN1CCCC1`, in series [1], the Ki is 0.365 µM.
Take `COc1cc(N2CC(=O)N(c3ccc(-c4ccccc4)cc3)C2=O)ccc1OCCN1CCCC1`: the Ki in [1] was 0.415 µM.

Broadly, the Ki is the equilibrium dissociation constant of an inhibitor or competing ligand from its target. What is called inhibition is the share of the control response that was lost under treatment.
